Legend:
YopH(y) = conditions: 10 μM
[1] = system: SW480 colon carcinoma cells; assay: MTS cell proliferation assay, Table 5; format: cell-based; conditions: Homo sapiens; SW480, 10 μM, 72 h; relative to DMSO control; read-out: Cell proliferation (%) for test compounds
Procedure, shortened: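 SW480 cells treated with 10 μM compound (0.1% DMSO vehicle) in 10% FBS medium, refreshed daily, for 72 h. MTS reduction read at A490 after 2 h substrate incubation; values are t0-corrected growth as percent of DMSO control.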

[2] = system: Wnt signaling pathway in SW480 cells; assay: ST-d1EGFP reporter in SW480 cells (flow cytometry); format: cell-based; conditions: 25 µM compound, 72 h
Description: 3) the SW480 colorectal cell line, which has an aberrant Wnt activity caused by spontaneous mutations in the APC locus, transfected with the construct ST-d1EGFP. In this cell line, d1EGFP reporter is activated without using Wnt-3a CM, i.e. the cell line has permanently “switched on” Wnt signaling pathway.
100000 ST-d1EGFP SW480 and SW480 CMV-d1EGFP (Clontech) SW480 cells were plated on 12-well plates and 1, 10 or 25 μM of compound No. 1 (or 0.01%, 0.1% or 0.25% DMSO—controls) was added to the cells the following day. After a 72 hour incubation, samples were trypsinized and analysed for d1EGFP expression on a PAS-PPCS flowcytometer and cell sorter (Partec).

AMPKα1(h) = target: T1, AMPKα1(h) (Homo sapiens, UniProt Q13131); assay: Kinase screen; format: biochemical; conditions: 0.1% DMSO control = 100%
T1 construct: purchased Millipore (KinaseProfiler service)

PAK2(h) = target: T2, PAK2(h) (Homo sapiens, UniProt Q13177); assay: Kinase screen; format: biochemical; conditions: 0.1% DMSO control = 100%
T2 construct: purchased Millipore (KinaseProfiler service)
T2 sequence (Q13177 whole entry): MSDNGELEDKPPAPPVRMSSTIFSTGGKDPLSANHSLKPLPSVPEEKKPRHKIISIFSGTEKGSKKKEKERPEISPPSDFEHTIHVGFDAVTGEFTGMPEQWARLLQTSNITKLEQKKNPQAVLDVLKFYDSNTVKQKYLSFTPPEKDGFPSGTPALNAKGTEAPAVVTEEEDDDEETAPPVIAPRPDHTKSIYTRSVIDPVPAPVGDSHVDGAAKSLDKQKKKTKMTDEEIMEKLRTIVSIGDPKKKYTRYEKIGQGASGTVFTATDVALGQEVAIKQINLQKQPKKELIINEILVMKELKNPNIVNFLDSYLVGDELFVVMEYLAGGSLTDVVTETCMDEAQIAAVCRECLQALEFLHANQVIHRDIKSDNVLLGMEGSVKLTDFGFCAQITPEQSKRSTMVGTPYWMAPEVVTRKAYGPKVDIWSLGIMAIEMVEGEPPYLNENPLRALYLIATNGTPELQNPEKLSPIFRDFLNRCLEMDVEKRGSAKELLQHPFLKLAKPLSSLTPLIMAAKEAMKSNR

eEF-2K(h) = target: T3, eEF-2K(h) (Homo sapiens, UniProt O00418); assay: Kinase screen; format: biochemical; conditions: 0.1% DMSO control = 100%
T3 construct: purchased Millipore (KinaseProfiler service)

RPTPm(h) = target: T4, RPTPm(h) (Homo sapiens, UniProt P28827); assay: Phosphatase screen; format: biochemical; conditions: 0.1% DMSO control = 100%
T4 construct: purchased Millipore (KinaseProfiler service)

DLD-1 cells = assay: Real-time RT-PCR of Wnt target genes; format: cell-based; conditions: 10 (or 25) M as printed, 72 h, relative to GAPDH
Description: (§1) A real-time RT-PCR analysis was employed to confirm specific inhibition of expressed Wnt target genes. […] After 24 hours, solutions containing compound No. 1 were added at 10 or 25 μm final concentrations. Media containing the test compound were changed daily for 3 days. […] Real Time RT-PCR (SYBR Green PCR Mastermix, Stratagene) was performed using the following primers on a Mx3000P® QPCR System real-time thermal cycler (Stratagene): Results were calculated as the ratio of expression of target gene to a control gene (GAPDH).

SW480 cells = assay: Real-time RT-PCR of Wnt target genes; format: cell-based; conditions: 10 (or 25) M as printed, 72 h, relative to GAPDH
Description: as §1

TMDP(h) = target: T5, TMDP(h) (Homo sapiens, UniProt Q9UII6); assay: Phosphatase screen; format: biochemical; conditions: 0.1% DMSO control = 100%
T5 construct: purchased Millipore (KinaseProfiler service)
T5 sequence (Q9UII6 whole entry): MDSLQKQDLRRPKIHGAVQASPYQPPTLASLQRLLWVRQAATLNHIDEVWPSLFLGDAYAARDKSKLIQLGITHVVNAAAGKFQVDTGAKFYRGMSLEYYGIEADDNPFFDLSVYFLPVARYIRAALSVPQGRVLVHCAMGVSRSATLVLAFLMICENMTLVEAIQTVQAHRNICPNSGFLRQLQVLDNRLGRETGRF

PTP MEG1(h) = target: T6, PTP MEG1(h) (Homo sapiens, UniProt P29074); assay: Phosphatase screen; format: biochemical; conditions: 0.1% DMSO control = 100%
T6 construct: purchased Millipore (KinaseProfiler service)

PTPN22(h) = target: T7, PTPN22(h) (Homo sapiens, UniProt Q9Y2R2); assay: Phosphatase screen; format: biochemical; conditions: 0.1% DMSO control = 100%
T7 construct: purchased Millipore (KinaseProfiler service)

PKCα(h) = target: T8, PKCα(h) (Homo sapiens, UniProt P17252); assay: Kinase screen; format: biochemical; conditions: 0.1% DMSO control = 100%
T8 construct: purchased Millipore (KinaseProfiler service)

CD45(h) = target: T9, CD45(h) (Homo sapiens, UniProt P08575); assay: Phosphatase screen; format: biochemical; conditions: 0.1% DMSO control = 100%
T9 construct: purchased Millipore (KinaseProfiler service)
T9 sequence (P08575 26-1306): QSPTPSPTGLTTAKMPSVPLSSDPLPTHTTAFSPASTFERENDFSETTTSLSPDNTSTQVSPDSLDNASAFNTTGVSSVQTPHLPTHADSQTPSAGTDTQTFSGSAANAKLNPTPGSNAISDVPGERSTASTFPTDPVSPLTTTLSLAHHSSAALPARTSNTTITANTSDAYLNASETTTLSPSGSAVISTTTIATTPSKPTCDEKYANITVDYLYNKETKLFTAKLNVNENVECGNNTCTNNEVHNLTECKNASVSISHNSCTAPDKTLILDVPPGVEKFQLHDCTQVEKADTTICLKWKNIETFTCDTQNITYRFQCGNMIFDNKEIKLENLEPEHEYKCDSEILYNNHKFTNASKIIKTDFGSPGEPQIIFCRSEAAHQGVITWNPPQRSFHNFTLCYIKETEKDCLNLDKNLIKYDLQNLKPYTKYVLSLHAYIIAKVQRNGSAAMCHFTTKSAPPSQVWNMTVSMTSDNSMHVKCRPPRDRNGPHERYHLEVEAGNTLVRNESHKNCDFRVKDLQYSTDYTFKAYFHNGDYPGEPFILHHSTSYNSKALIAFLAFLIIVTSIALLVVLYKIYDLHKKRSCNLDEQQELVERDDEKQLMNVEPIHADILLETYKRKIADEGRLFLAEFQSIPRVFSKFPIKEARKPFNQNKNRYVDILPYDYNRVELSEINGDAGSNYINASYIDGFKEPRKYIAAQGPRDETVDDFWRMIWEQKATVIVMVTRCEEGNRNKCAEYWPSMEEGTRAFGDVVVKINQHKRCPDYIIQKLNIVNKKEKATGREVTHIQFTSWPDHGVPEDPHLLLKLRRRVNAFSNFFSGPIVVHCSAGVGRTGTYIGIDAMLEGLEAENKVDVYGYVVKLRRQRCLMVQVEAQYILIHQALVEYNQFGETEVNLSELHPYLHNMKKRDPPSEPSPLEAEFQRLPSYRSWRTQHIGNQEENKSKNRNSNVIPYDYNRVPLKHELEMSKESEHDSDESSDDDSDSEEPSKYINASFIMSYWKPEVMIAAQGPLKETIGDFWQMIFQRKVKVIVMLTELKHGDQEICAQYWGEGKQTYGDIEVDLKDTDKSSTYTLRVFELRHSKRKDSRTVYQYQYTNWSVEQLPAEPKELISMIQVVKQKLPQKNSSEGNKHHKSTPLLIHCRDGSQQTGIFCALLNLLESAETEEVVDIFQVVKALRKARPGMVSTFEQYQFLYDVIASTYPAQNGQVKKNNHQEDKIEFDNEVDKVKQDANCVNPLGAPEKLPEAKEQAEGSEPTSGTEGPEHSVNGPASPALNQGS

PP2A(h) = assay: Phosphatase screen; format: biochemical, human; conditions: 10 μM; 0.1% DMSO control = 100%
CDK6/cyclinD3(h) = target: T10, CDK6/cyclinD3(h) (Homo sapiens, UniProt Q00534); assay: Kinase screen; format: biochemical; conditions: 0.1% DMSO control = 100%
T10 construct: purchased Millipore (KinaseProfiler service)
T10 sequence (Q00534 whole entry): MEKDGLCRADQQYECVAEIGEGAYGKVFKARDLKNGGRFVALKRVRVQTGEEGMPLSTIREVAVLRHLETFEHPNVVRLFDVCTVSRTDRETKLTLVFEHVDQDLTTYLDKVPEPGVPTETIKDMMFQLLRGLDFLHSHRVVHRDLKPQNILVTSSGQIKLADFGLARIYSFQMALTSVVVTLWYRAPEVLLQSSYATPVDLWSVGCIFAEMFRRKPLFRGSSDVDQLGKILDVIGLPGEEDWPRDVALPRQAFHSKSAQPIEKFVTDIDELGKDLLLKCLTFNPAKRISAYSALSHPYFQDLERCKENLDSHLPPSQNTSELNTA
T10 sequence (P30281 whole entry partner): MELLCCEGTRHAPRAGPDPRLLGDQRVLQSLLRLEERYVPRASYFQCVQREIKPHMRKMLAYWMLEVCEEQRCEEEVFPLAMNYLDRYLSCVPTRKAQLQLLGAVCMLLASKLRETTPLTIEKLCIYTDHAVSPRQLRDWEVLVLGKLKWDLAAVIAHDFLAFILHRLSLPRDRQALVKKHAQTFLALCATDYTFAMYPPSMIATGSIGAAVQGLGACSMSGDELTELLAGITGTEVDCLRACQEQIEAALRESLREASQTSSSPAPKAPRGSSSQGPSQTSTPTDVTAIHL

MLK1(h) = target: T11, MLK1(h) (Homo sapiens, UniProt P80192); assay: Kinase screen; format: biochemical; conditions: 0.1% DMSO control = 100%
T11 construct: purchased Millipore (KinaseProfiler service)

TAK1(h) = target: T12, TAK1(h) (Homo sapiens, UniProt O43318); assay: Kinase screen; format: biochemical; conditions: 0.1% DMSO control = 100%
T12 construct: purchased Millipore (KinaseProfiler Service)
T12 sequence (O43318 1-303 limits assumed): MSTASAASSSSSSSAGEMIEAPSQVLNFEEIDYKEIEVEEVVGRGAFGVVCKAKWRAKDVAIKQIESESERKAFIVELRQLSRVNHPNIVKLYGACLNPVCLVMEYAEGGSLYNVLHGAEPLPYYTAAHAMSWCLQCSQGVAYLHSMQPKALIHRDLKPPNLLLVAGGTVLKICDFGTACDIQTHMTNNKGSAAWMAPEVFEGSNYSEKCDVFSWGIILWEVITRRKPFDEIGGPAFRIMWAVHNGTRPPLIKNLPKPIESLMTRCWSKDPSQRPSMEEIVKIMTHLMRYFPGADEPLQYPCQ

JNK3(h) = target: T13, JNK3(h) (Homo sapiens, UniProt P53779); assay: Kinase screen; format: biochemical; conditions: 0.1% DMSO control = 100%
T13 construct: purchased Millipore (KinaseProfiler service)

PKBα(h) = target: T14, PKBα(h) (Homo sapiens, UniProt P31749); assay: Kinase screen; format: biochemical; conditions: 0.1% DMSO control = 100%
T14 construct: purchased Millipore (KinaseProfiler service)

HePTP(h) = target: T15, HePTP(h) (Homo sapiens, UniProt P35236); assay: Phosphatase screen; format: biochemical; conditions: 0.1% DMSO control = 100%
T15 construct: purchased Millipore (KinaseProfiler service)

MSK2(h) = target: T16, MSK2(h) (Homo sapiens, UniProt O75676); assay: Kinase screen; format: biochemical; conditions: 0.1% DMSO control = 100%
T16 construct: purchased Millipore (KinaseProfiler service)
T16 sequence (O75676 whole entry): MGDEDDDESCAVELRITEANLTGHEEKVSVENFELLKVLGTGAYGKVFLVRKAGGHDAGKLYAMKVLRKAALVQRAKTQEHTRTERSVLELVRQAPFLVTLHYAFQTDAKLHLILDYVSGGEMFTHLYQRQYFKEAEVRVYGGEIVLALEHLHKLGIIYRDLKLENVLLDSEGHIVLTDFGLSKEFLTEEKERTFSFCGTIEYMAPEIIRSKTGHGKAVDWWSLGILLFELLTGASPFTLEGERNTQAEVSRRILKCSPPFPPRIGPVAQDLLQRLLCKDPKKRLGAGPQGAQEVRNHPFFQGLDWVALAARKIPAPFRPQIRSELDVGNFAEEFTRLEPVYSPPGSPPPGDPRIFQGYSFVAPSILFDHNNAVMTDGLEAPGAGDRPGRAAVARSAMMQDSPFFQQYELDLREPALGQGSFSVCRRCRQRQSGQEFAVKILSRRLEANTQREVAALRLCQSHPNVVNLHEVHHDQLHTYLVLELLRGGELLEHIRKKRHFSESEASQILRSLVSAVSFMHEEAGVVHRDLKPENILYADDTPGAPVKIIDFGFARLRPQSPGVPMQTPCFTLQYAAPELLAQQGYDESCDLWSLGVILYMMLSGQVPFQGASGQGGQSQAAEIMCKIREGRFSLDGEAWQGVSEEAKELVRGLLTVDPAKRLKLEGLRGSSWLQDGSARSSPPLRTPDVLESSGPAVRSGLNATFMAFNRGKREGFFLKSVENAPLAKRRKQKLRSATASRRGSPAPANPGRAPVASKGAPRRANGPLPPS

CDK9/cyclin T1(h) = target: T17, CDK9/cyclin T1(h) (Homo sapiens, UniProt P50750); assay: Kinase screen; format: biochemical; conditions: 0.1% DMSO control = 100%
T17 construct: purchased Millipore (KinaseProfiler service)

GSK3β(h) = target: T18, GSK3β(h) (Homo sapiens, UniProt P49841); assay: Kinase screen; format: biochemical; conditions: 0.1% DMSO control = 100%
T18 construct: purchased Millipore (KinaseProfiler service)

EphA5(h) = target: T19, EphA5(h) (Homo sapiens, UniProt P54756); assay: Kinase screen; format: biochemical; conditions: 0.1% DMSO control = 100%
T19 construct: purchased Millipore (KinaseProfiler service)

cSRC(h) = target: T20, cSRC(h) (Homo sapiens, UniProt P12931); assay: Kinase screen; format: biochemical; conditions: 0.1% DMSO control = 100%
T20 construct: purchased Millipore (KinaseProfiler service)
T20 sequence (P12931 whole entry): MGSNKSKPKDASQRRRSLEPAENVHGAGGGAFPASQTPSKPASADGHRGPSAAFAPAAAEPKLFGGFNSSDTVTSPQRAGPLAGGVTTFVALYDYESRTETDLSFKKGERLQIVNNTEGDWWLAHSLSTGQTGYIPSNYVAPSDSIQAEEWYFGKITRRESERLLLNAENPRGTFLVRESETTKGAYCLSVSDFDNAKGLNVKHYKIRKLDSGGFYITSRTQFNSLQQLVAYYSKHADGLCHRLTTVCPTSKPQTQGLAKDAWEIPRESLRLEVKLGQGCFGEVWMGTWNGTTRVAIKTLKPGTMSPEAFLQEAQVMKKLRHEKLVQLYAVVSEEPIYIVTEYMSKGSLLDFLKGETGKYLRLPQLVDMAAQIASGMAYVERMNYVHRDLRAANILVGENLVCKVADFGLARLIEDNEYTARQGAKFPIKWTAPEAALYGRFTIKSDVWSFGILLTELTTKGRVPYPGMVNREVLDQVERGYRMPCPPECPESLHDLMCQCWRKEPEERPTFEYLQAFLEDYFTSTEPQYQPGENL

## COc1ccc(-n2c(SCc3nc(-c4ccc(C)cc4)no3)nnc2-c2ccncc2)cc1 [Compound 1]
YopH(y)
  Activity (%): 94%
[1]
  activity at 10 µM: 52%
[2]
  reduction of ratio of activity of ST-d1EGFP to CMV-d1EGFP: 63.5%
AMPKα1(h)
  activity at 10 µM: 95%
PAK2(h)
  activity at 10 µM: 99%
eEF-2K(h)
  activity at 10 µM: 117%
RPTPm(h)
  activity at 10 µM: 103%
DLD-1 cells
  Axin2, SP5 and NKD1 mRNA levels: dose dependent reduction
SW480 cells
  Axin2, SP5 and NKD1 mRNA levels: dose dependent reduction
TMDP(h)
  activity at 10 µM: 97%
PTP MEG1(h)
  activity at 10 µM: 92%
PTPN22(h)
  activity at 10 µM: 99%
PKCα(h)
  activity at 10 µM: 105%
CD45(h)
  activity at 10 µM: 108%
PP2A(h)
  Activity (%): 87%
CDK6/cyclinD3(h)
  activity at 10 µM: 94%
MLK1(h)
  activity at 10 µM: 99%
TAK1(h)
  activity at 10 µM: 104%
JNK3(h)
  activity at 10 µM: 93%
PKBα(h)
  activity at 10 µM: 79%
HePTP(h)
  activity at 10 µM: 106%
MSK2(h)
  activity at 10 µM: 108%
CDK9/cyclin T1(h)
  activity at 10 µM: 115%
GSK3β(h)
  activity at 10 µM: 90%
EphA5(h)
  activity at 10 µM: 99%
cSRC(h)
  activity at 10 µM: 100%
